This note sets out measurements from ChEMBL document CHEMBL1152209, “Synthesis and biological activity of previtamin D(3) analogues with A-ring modifications” (2008).

The target of assay [1] is T1, Vitamin D-binding protein (Homo sapiens) (UniProt P02774).
T1 sequence (whole entry): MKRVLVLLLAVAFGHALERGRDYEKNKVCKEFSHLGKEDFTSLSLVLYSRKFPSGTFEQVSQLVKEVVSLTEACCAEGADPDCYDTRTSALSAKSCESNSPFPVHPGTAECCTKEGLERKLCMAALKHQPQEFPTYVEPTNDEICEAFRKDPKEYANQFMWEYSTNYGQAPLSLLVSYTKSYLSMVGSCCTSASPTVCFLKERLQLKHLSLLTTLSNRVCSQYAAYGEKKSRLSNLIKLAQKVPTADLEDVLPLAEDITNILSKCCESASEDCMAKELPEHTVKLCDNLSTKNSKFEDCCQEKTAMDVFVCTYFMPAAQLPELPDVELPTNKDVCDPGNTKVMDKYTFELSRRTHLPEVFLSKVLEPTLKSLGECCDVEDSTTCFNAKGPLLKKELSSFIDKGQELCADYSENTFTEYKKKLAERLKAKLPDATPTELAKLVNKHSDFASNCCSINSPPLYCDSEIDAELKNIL
Briefly: Binding affinity to human DBP at EC50 in 4 degC relative to 1-alpha,25-(OH)2D3.

The target of assay [2] is T2, Vitamin D3 receptor (Sus scrofa) (UniProt A3RGC1).
T2 sequence (whole entry): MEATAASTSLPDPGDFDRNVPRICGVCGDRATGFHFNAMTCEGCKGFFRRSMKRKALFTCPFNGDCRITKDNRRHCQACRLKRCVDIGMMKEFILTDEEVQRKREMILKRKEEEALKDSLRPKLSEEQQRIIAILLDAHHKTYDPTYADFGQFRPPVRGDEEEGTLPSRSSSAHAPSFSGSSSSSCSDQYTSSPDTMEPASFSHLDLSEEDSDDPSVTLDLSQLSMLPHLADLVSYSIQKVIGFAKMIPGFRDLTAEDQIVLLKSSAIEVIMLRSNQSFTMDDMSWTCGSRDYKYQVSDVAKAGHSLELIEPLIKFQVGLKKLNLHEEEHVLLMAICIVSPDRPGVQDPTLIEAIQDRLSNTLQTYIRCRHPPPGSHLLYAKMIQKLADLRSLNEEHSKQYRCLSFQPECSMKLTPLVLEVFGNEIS
As to the kind of experiment: Displacement of [3H]1-alpha,25-(OH)2D3 from pig VDR at EC50 relative to 1-alpha,25-(OH)2D3. In general terms: In a radioligand displacement assay an active substance lowers the binding of a labelled ligand.

The test system of another assay is MCF7. Briefly: Inhibition of human MCF7 cell proliferation assessed as [3H]thymidine incorporation at EC50 after 72 hrs relative to 1-alpha,25-(OH)2D3. The format is functional. A general note: Incorporation of labelled thymidine or its analogues reports DNA synthesis.

The structures appear in SMILES notation.

Regarding `C[C@H](CCCC(C)(C)O)[C@H]1CC[C@H]2C(/C=C\C3=C[C@@H](O)[C@H](OCCCO)[C@H](O)C3)=CCC[C@]12C`, the Activity in assay [1] was 0.5%; in assay [2], 0%. Besides, the “inhibition (INH)” value in the assay on MCF7 stood at 0%.

Turning to `C[C@H](CCCC(C)(C)O)[C@H]1CC[C@H]2C(/C=C\C3=C[C@@H](O)[C@@H]4O[C@@H]4C3)=CCC[C@]12C`, the Activity is 0.9% in assay [1] and 0% in assay [2]. Besides, the “inhibition (INH)” value with MCF7 is reported as 0%.
